Test systems include TK-10 renal; M19-MEL melanoma; IGROV1 ovarian; NCI-H522 lung; OVCAR-4 ovarian; 786-0 renal; SN12C renal; HOP-92 NSCLC; LOX IMVI melanoma; LXFL 529 NSCLC.
Holding throughout (assay): inhibition of tumour cell growth, NCI panel, 48 h

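Where inhibition never reached the appropriate level, the endpoint shown equals the highest concentration tested. Otherwise, values were interpolated linearly from a five-concentration, 48-hour dose response in 96-well plates. GI50 marks 50% less growth. TGI denotes the concentration required for complete inhibition of growth.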

The results in this text go back to PubChem BioAssay (NCI).

In the case of `O=C(O)C1=CCCc2ccc3ccccc3c21`, the TGI with TK-10 renal, in the assay with M19-MEL melanoma, in the assay with IGROV1 ovarian, in the assay with NCI-H522 lung, in the assay with OVCAR-4 ovarian and in the assay with 786-0 renal was over 100 µM each time. Further, the TGI with SN12C renal, in the assay with HOP-92 NSCLC, in the assay with LOX IMVI melanoma and with LXFL 529 NSCLC was over 100 µM each time.
`CCN(CC)CCCn1cnc2ncccc2c1=O`: the TGI in the assay with TK-10 renal, in the assay with M19-MEL melanoma, in the assay with IGROV1 ovarian, in the assay on NCI-H522 lung, in the assay with OVCAR-4 ovarian and in the assay with 786-0 renal was over 100 µM in each case. Besides, the TGI in the assay with SN12C renal, with HOP-92 NSCLC, with LOX IMVI melanoma and with LXFL 529 NSCLC was over 100 µM each time.
On to `CCCCCCCC(=O)NCC(O)CNC(=O)CCCCCCC`, for which the TGI in the assay on TK-10 renal, with M19-MEL melanoma, in the assay with IGROV1 ovarian, with NCI-H522 lung, in the assay with OVCAR-4 ovarian and in the assay with 786-0 renal was over 100 µM each time. For the same molecule, the TGI in the assay with SN12C renal, in the assay with HOP-92 NSCLC, with LOX IMVI melanoma and in the assay on LXFL 529 NSCLC was over 100 µM throughout.
In the case of `Cc1oc2c(C)c3oc(=O)cc(C)c3cc2c1CNC(=O)[C@@H]1OCCOCCOCCOCCOCCOC1C(=O)O` (some centres undefined), the TGI with TK-10 renal is over 100 µM; in the assay with M19-MEL melanoma, over 100 µM; with IGROV1 ovarian it was over 100 µM; in the assay with NCI-H522 lung it was over 100 µM; with OVCAR-4 ovarian, over 100 µM; with 786-0 renal, 45 µM. For the same molecule, the TGI in the assay on SN12C renal is over 100 µM; in the assay on HOP-92 NSCLC it was over 100 µM; in the assay with LOX IMVI melanoma, over 100 µM; in the assay on LXFL 529 NSCLC, 27.7 µM.
`CCC[CH2][Sn]([CH2]CCC)([O]C(=O)c1cc(F)ccc1F)[O][Sn]([CH2]CCC)([CH2]CCC)[O]C(=O)c1cc(F)ccc1F`: the GI50 is 0.226 µM in the assay with TK-10 renal; 0.0854 µM in the assay with M19-MEL melanoma; 1.03 µM in the assay on IGROV1 ovarian; 0.513 µM in the assay on OVCAR-4 ovarian; 0.158 µM in the assay with 786-0 renal; 0.314 µM in the assay on SN12C renal. The GI50 is 0.148 µM in the assay with HOP-92 NSCLC, 0.132 µM in the assay on LOX IMVI melanoma and 0.0185 µM with LXFL 529 NSCLC. The TGI in the assay with TK-10 renal was 0.616 µM; in the assay with M19-MEL melanoma, 0.459 µM; in the assay with IGROV1 ovarian, 2.33 µM; in the assay with NCI-H522 lung it was 0.0658 µM; in the assay with OVCAR-4 ovarian, 1.73 µM; with 786-0 renal it was 0.405 µM. The TGI with SN12C renal is 1.27 µM; in the assay on HOP-92 NSCLC, 0.491 µM; in the assay on LOX IMVI melanoma, 0.306 µM; in the assay on LXFL 529 NSCLC, 0.155 µM.
Regarding `C/C=C/C1=C(Cl)C(=O)[C@@H](Cl)[C@@]1(O)C(=O)OC`, the TGI in the assay on TK-10 renal was 9.14 µM; in the assay on M19-MEL melanoma it was 10.1 µM; in the assay on IGROV1 ovarian, 14.1 µM; in the assay on NCI-H522 lung it was 2.52 µM; with OVCAR-4 ovarian, 5.59 µM; in the assay with 786-0 renal, 18 µM. Moreover, the TGI amounted to 7.15 µM in the assay on SN12C renal, 6.22 µM with HOP-92 NSCLC, 6.37 µM in the assay with LOX IMVI melanoma and 7.41 µM in the assay on LXFL 529 NSCLC.
For `CN(C)CCN(C)CC1COC(C)(C)O1` (centres undefined), the TGI in the assay with TK-10 renal, with M19-MEL melanoma, with IGROV1 ovarian, in the assay on NCI-H522 lung, in the assay with OVCAR-4 ovarian and in the assay with 786-0 renal was over 100 µM in each case. Further, the TGI with SN12C renal, in the assay with HOP-92 NSCLC, with LOX IMVI melanoma and with LXFL 529 NSCLC was over 100 µM throughout.
